Assay results taken from patent US20230183647A1, “METHOD FOR GENERATING FUNCTIONAL SKELETAL MUSCLE FIBERS INNERVATED BY MOTONEURONS” (ASSOCIATION FRANCAISE CONTRE LES MYOPATHIES (AFM), priority 2020, published 2023).
Entries after “also recorded” stand apart in the source; their conditions may differ.

Key:
[1] = tested on: hiPSC-derived innervated myofibers; assay: Transient Calcium influx (Calcium handling) in hiPSC-derived innervated myofibers after drug addition; format: cell-based, human; conditions: for Calcium release: cells at D45, single addition
Method: A-D. We measured the transient Calcium influx in control myofibers prior to drug addition (0 hr) and at different time points after a single addition of different concentrations of each drug. Violin plots display the number of influx per minute and per fiber (n>50). Statistical significance was determined using ANOVA multiple comparison test followed by Brown-Forsythe and Welch correction and comparison to the basal condition (prior to drug addition). A. 0; 2 and 20 μM for Glutamate, B. 0; 1 and 10 μM for Salbutamol. C. 0; 0.5 and 1 mM for Carisoprodol. D. 0; 10 and 100 μM for Mexiletine.
Calcium transients were measured after addition to the cell culture medium of FLUO-8AM fluorescent Ca^2+ indicator (AAT Bioquest). Cells were incubated for 30 min at 37° c in DM+I medium containing 5 μM Fluo8-AM and 0.04% Pluronic acid before imaging on a Fast Imaging Observer system (Axio Observer.Z1/7; Zeiss) with a 10× lens (10×/0.30 M27 DIC I EC Plan-Neofluar; […]). Fluorescence was excited at 488 nm and emission collected at >509 nm. Images were acquired as time series. Different regions were tracked to record the fluorescent intensity at a 10× magnification during 30 seconds and an interval of 200,0 ms corresponding to 151 frames. Analysis was performed using the Zen pro software (Zeiss). ROI was created for selected fibers then intensity mean for each fiber was exported and Calcium transients were calculated by counting the number of peaks intensity for each graph.
For drug treatment, cells were seeded and differentiated in 6 to 12-well plates for 45 days. We tested the activity of Mexiletine (M2727, Sigma Aldrich, 10; 100 μM diluted in methanol), Carisoprodol (C8759, Sigma Aldrich, […]; […] diluted in ethanol), Salbutamol (S8260, Sigma Aldrich, 1 μM; 10 μM, diliuted in methanol) and L-Glutamic acid potassium salt monohydrate (G1501, Sigma Aldrich, 2 μM; 20 μM diluted in H2O) added at 0.1% in the culture medium on fiber contractions. Cell contractions were captured as described for Calcium handling measurements.
To evaluate the potential application of hiPSC-derived innervated myofibers as a preclinical model for drug testing, we tested the response to different classes of pharmaceutical agents by real time video microscopy and Calcium handling analysis. Cells at D45 were treated for different durations with different concentrations of each molecule at (FIG. 8A-D).

hiPSC-derived myofibers = format: cell-based, human

CCCC(C)(COC(N)=O)COC(=O)NC(C)C (centres unmarked) [Carisoprodol]
muscle contraction (Calcium influx) ([1]; 0.5 to 1 mM, cells at D45): reduces muscle contraction 3 to 4 hrs

N[C@@H](CCC(=O)[O-])C(=O)[O-].O.[K+].[K+] [Glutamate, L-Glutamic acid potassium salt monohydrate]
Calcium release ([1]; 2 μM): did not observe any difference
Calcium release ([1]; 20 μM): increased activity 20 to 30 minutes

Cc1cccc(C)c1OCC(C)N (centres unmarked) [Mexiletine]
Calcium handling ([1]; 10 μM, cells at D45): decrease in Calcium handling 2 hrs
Calcium handling ([1]; 100 μM, cells at D45): sharp decrease 1 to 2 hrs

CC(C)(C)NCC(O)c1ccc(O)c(CO)c1 (centres unmarked) [Salbutamol]
Ca2+ handling ([1]; 1 μM and 10 μM, cells at D45): decreases Ca^2+ handling as early as 4 hours

NC1=N[C@H](O)[C@H]2[C@H]3O[C@]4(O)O[C@@H]([C@@H](O)[C@@]2(N1)[C@@H]4O)[C@]3(O)CO [Tetrodotoxin]
cell contraction after drug addition (mean number of contractions) (hiPSC-derived myofibers): irreversibly blocked; also recorded: irreversibly inhibits cell contraction

Alpha Bungarotoxin
cell contraction after drug addition (mean number of contractions) (hiPSC-derived myofibers): irreversibly blocked; also recorded: irreversibly inhibits cell contraction
